Results on 43 molecules are retold here after patent publication US10183021B2, “sGC stimulators” (Ironwood Pharmaceuticals, Inc., priority 2013, dated 2019).

pEC50: −log10 of the molar value. Read-outs that look alike come from different tables or passages of the source.

The target of assay [1] is T1, soluble guanylate cyclase (sGC) (Homo sapiens (Human), UniProt Q02108+Q02153). The experiment in a line: sGC-HEK-cGMP assay with SNP incubation, LC/MS detection (Example 2A). It is filed as cell-based. The essentials: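 HEK293 cells with endogenous sGC were pretreated 15 min at 37 °C with 0.5 mM IBMX, then exposed 10 min at 37 °C to compound (added from 0.0001–30 μM solutions) plus SNP (from 10 μM solution). After 0.1 M HCl lysis, cGMP was quantified by LC/MS against a standard curve.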
T1 sequence (Q02153 whole entry): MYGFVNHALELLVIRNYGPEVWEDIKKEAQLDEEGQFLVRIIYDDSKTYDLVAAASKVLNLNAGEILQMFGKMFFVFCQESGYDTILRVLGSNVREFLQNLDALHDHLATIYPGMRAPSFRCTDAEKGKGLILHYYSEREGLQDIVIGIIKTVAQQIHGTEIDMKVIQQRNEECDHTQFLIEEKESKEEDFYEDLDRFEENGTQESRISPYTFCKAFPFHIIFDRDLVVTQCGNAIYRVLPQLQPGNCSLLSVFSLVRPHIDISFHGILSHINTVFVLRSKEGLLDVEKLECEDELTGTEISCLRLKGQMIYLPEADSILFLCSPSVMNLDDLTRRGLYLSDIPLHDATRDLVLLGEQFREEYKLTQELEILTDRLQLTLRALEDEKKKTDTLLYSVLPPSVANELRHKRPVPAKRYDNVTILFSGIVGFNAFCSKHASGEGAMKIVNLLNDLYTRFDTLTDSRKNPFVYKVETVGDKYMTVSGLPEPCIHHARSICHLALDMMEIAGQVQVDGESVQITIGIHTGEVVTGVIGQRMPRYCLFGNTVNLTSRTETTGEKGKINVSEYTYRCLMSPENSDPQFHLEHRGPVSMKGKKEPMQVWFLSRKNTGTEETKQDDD
T1 sequence (Q02108 whole entry): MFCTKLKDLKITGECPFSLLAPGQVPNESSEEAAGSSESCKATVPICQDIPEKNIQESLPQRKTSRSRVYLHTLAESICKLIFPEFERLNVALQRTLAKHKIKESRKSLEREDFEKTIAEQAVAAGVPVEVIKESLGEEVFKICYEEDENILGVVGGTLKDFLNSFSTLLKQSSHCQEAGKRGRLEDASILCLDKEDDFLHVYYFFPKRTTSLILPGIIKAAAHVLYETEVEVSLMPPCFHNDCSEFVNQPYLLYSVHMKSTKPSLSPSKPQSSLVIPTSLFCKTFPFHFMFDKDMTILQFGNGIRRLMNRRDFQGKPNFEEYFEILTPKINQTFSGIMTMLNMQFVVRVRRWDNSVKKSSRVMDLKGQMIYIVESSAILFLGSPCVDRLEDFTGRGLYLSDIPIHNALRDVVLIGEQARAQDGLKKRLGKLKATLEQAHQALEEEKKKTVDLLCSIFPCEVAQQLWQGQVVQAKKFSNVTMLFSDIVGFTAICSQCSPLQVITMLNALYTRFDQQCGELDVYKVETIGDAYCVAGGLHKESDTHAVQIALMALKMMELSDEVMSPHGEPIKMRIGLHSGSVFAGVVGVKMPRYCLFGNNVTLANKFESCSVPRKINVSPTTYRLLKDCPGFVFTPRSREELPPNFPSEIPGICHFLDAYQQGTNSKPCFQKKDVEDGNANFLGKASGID

The target in assay [2] is T1, soluble guanylate cyclase (sGC). The experiment in a line: sGC-HEK-cGMP assay, new protocol with DETA-NONOate, LC/MS detection (Example 2C). It is filed as cell-based. Conditions: for EC50: read-out: Absolute EC50 (uM) - binned.
Setting [3] is: HEK293 cells, 10 μM SNP, LC/MS detection, 100% = BAY 41-2272 at 10 μM, read-out: HEK assay Emax - unconstrained (%).
Setting [4] is: HEK293 cells, 10 μM SNP, LC/MS detection, top of curve fitted to 100%, read-out: HEK assay EC50 - constrained.
[5] abbreviates: HEK293 cells, 10 μM SNP, LC/MS detection, top of curve not fitted to 100%, read-out: HEK assay EC50 - unconstrained.

Usually Emax stands for the maximal effect, on the per cent scale that the assay sets. Broadly, the pEC50 is −log10 of the EC50, conventionally taken in molar units. One may read the EC50 as the concentration needed to bring the measured effect to its halfway point. Turning to `CC(C)[C@H](Nc1nc(-c2cc(-c3ccon3)n(Cc3ccccc3F)n2)ncc1F)C(=O)O` [Compound I-69, (S)-2-((5-fluoro-2-(1-(2-fluorobenzyl)-5-(isoxazol-3-yl)-1H-pyrazol-3-yl)pyrimidin-4-yl)amino)-3-methylbutanoic acid], the Emax in assay [1] (setting [3]) was in the range of 80 to 100%. Also, the results for the pEC50 in assay [1] (setting [4]) and in assay [1] (setting [5]) were 6.30 to 7.00 and 6.00 to 6.30, respectively. In addition, the EC50 in assay [2] fell in the range of 0.101 to 1 µM.
`O=C(O)[C@H](Cc1cc2ccccc2[nH]1)Nc1nc(-c2cc(-c3ccon3)n(Cc3ccccc3F)n2)ncc1F` [Compound I-81]: the pEC50 in assay [1] (setting [4]) is less than 5.00. The 50% effective concentration (EC50) in assay [2] was more than 1 µM.
For `O=C(O)C1(Nc2nc(-c3cc(-c4ccon4)n(Cc4ccccc4F)n3)ncc2F)CC1` [Compound I-85] the same measures were less than 5.00 and more than 1 µM.
For `CC(C)C[C@H](Nc1nc(-c2cc(-c3ccon3)n(Cc3ccccc3F)n2)ncc1F)C(=O)O` [Compound I-88], the Emax in assay [1] (setting [3]) was in the range of 60 to 80%. Also, in assay [1] (setting [5]), the pEC50 was 5.30 to 6.00. The EC50 in assay [2] was 0.101 to 1 µM.
Taken in the same sequence, the figures for `O=C(O)[C@@H]1Cc2ccccc2N1c1nc(-c2cc(-c3ccon3)n(Cc3ccccc3F)n2)ncc1F` [Compound I-90] were 40 to 60%, 5.00 to 5.30 and more than 1 µM.
`CC(C)(C)OC(=O)N1CCN(c2nc(-c3cc(-c4ccon4)n(Cc4ccccc4F)n3)ncc2F)C(C(=O)O)C1` (centres unmarked) [Compound I-101]: in assay [1] (setting [4]), the pEC50 was 5.00 to 5.30. Also, the EC50 in assay [2] fell in the range of 0.101 to 1 µM.
For `O=C(O)c1cccn1-c1nc(-c2cc(-c3ccon3)n(Cc3ccccc3F)n2)ncc1F` [Compound I-104], the Emax in assay [1] (setting [3]) fell in the range of 20 to 40%. For the same molecule, the negative logarithm of the EC50 (pEC50) in assay [1] (setting [5]) is 5.30 to 6.00. In addition, the EC50 in assay [2] is more than 1 µM.
As for `O=C(O)[C@@H](Cc1cc2ccccc2[nH]1)Nc1nc(-c2cc(-c3ccon3)n(Cc3ccccc3F)n2)ncc1F` [Compound I-108], in assay [1] (setting [4]), the pEC50 is 5.00 to 5.30. Further, the EC50 in assay [2] lay within 0.101 to 1 µM.
For `Fc1ccccc1Cn1nc(-c2ncc(F)c(N3CCc4ccccc4C3)n2)cc1-c1ccon1` [Compound I-111] the same measures were less than 5.00 and less than 0.1 µM.
Consider `O=C(O)[C@@]1(Nc2nc(-c3cc(-c4ccon4)n(Cc4ccccc4F)n3)ncc2F)CC2CC[C@H]1C2` [Compound I-114], for which, in assay [1] (setting [3]), the Emax is 40 to 60%. The pEC50 in assay [1] (setting [5]) was 5.30 to 6.00. Also, in assay [2], the EC50 was more than 1 µM.
As to `COc1ccc2c(c1)CCN(c1nc(-c3cc(-c4ccon4)n(Cc4ccccc4F)n3)ncc1F)C2C(=O)O` (centres unmarked) [Compound I-126], in assay [1] (setting [4]), the pEC50 is 6.00 to 6.30. Besides, the EC50 in assay [2] was less than 0.1 µM.
In the case of `O=C(O)C1c2ccc(O)cc2CCN1c1nc(-c2cc(-c3ccon3)n(Cc3ccccc3F)n2)ncc1F` (centres unmarked) [Compound I-127], the pEC50 in assay [1] (setting [4]) is less than 5.00. In assay [2], the EC50 was more than 1 µM.
Taken in the same sequence, the figures for `O=C(O)C1(CNc2nc(-c3cc(-c4ccon4)n(Cc4ccccc4F)n3)ncc2F)CCCC1` [Compound I-129] were 6.30 to 7.00 and less than 0.1 µM.
For `O=C(O)C1CNCCN1c1nc(-c2cc(-c3ccon3)n(Cc3ccccc3F)n2)ncc1F` (centres unmarked) [Compound I-133] the same measures were less than 5.00 and more than 1 µM.
Taken in the same sequence, the figures for `COC(=O)N1CCN(c2nc(-c3cc(-c4ccon4)n(Cc4ccccc4F)n3)ncc2F)C(C(=O)O)C1` (centres unmarked) [Compound I-135] were less than 5.00 and more than 1 µM.
As for `O=C(O)C1(Nc2nc(-c3cc(-c4ccon4)n(Cc4ccccc4F)n3)ncc2F)CCCC1` [Compound I-138], the pEC50 in assay [1] (setting [4]) was 5.30 to 6.00. Further, the EC50 in assay [2] was more than 1 µM.
With `O=C(O)C1CCc2ccccc2N1c1nc(-c2cc(-c3ccon3)n(Cc3ccccc3F)n2)ncc1F` (centres unmarked) [Compound I-140], the Emax in assay [1] (setting [3]) lay in the range of 80 to 100%. Also, the pEC50 in assay [1] (setting [5]) is 5.30 to 6.00. Further, the EC50 in assay [2] lay in the range of 0.101 to 1 µM.
For the molecule `O=C(O)C1c2ccccc2CN1c1nc(-c2cc(-c3ccon3)n(Cc3ccccc3F)n2)ncc1F` (centres unmarked) [Compound I-149], the pEC50 in assay [1] (setting [4]) is less than 5.00. For the same molecule, the EC50 in assay [2] was more than 1 µM.
For `O=C(O)[C@H](Cc1ccc(O)cc1)Nc1nc(-c2cc(-c3ccon3)n(Cc3ccccc3F)n2)ncc1F` [Compound I-159] the same measures were less than 5.00 and more than 1 µM.
For `O=C(O)C1c2[nH]cnc2CCN1c1nc(-c2cc(-c3ccon3)n(Cc3ccccc3F)n2)ncc1F` (centres unmarked) [Compound I-163] the same measures were less than 5.00 and more than 1 µM.
For `O=C(O)C1(F)CCN(c2nc(-c3cc(-c4ccon4)n(Cc4ccccc4F)n3)ncc2F)CC1` [Compound I-188] the same measures were 5.30 to 6.00 and 0.101 to 1 µM.
Regarding `CN(Cc1nn[nH]n1)c1nc(-c2cc(-c3ccon3)n(Cc3ccccc3F)n2)ncc1F` [Compound I-191], the pEC50 in assay [1] (setting [4]) is less than 5.00. For the same molecule, in assay [2], the EC50 was less than 0.1 µM.
With `CS(=O)(=O)C1CCN(c2nc(C3=NC(Cc4ccccc4F)C(c4ccon4)=C3)ncc2F)C1` (centres unmarked) [Compound I-192], the Emax in assay [1] (setting [3]) was more than 120%. Besides, the pEC50 in assay [1] (setting [5]) is 7.00 to 9.00. Besides, the EC50 in assay [2] was less than 0.1 µM.
For `O=C(O)[C@@H]1CCCC[C@H]1Nc1nc(-c2cc(-c3ccon3)n(Cc3ccccc3F)n2)ncc1F` [Compound I-198] the same measures were 40 to 60%, 7.00 to 9.00 and less than 0.1 µM.
For the molecule `CC(C)N(CC(=O)O)c1nc(-c2cc(-c3ccon3)n(Cc3ccccc3F)n2)ncc1F` [Compound I-204], in assay [1] (setting [4]), the pEC50 was less than 5.00. In addition, the EC50 in assay [2] is 0.101 to 1 µM.
Taken in the same sequence, the figures for `O=C(O)C(F)(F)CNc1nc(-c2cc(-c3ccon3)n(Cc3ccccc3F)n2)ncc1F` [Compound I-206] were less than 5.00 and less than 0.1 µM.
For `CCOC(=O)CN1CCCN1c1nc(-c2cc(-c3ccon3)n(Cc3ccccc3F)n2)ncc1F` [Compound I-213], the Emax in assay [1] (setting [3]) was more than 120%. The pEC50 in assay [1] (setting [5]) was 6.00 to 6.30. Further, in assay [2], the EC50 is less than 0.1 µM.
For `O=C(O)CCCNc1nc(-c2cc(-c3ccon3)n(Cc3ccccc3F)n2)ncc1F` [Compound I-214] the same measures were more than 120%, 6.30 to 7.00 and less than 0.1 µM.
Taken in the same sequence, the figures for `CC(C)[C@H](C(=O)O)N(C)c1nc(-c2cc(-c3ccon3)n(Cc3ccccc3F)n2)ncc1F` [Compound I-219] were 20 to 40%, less than 5.00 and less than 0.1 µM.
Taken in the same sequence, the figures for `O=C(O)CC1CCN(c2nc(-c3cc(-c4ccon4)n(Cc4ccccc4F)n3)ncc2F)CC1` [Compound I-230] were 40 to 60%, less than 5.00 and less than 0.1 µM.
As for `CC(C)[C@@H](C(=O)O)N(C)c1nc(-c2cc(-c3ncco3)n(Cc3ccccc3F)n2)ncc1F` [Compound I-236], the Emax in assay [1] (setting [3]) is 100 to 120%. For the same molecule, the pEC50 in assay [1] (setting [5]) is 6.30 to 7.00. For the same molecule, in assay [2], the EC50 was less than 0.1 µM.
For `CN(c1nc(-c2cc(-c3ccon3)n(Cc3ccccc3F)n2)ncc1F)[C@H](C(=O)O)C1CC1` [Compound I-239] the same measures were 60 to 80%, 7.00 to 9.00 and less than 0.1 µM.
As to `O=C(O)CC1(Nc2nc(-c3cc(-c4ccon4)n(Cc4ccccc4F)n3)ncc2F)CCOCC1` [Compound I-245], the pEC50 in assay [1] (setting [4]) was 6.30 to 7.00. Further, the EC50 in assay [2] is 0.101 to 1 µM.
Turning to `CN(CC1(C(=O)O)CC1)c1nc(-c2cc(-c3ccon3)n(Cc3ccccc3F)n2)ncc1F` [Compound I-250], the Emax in assay [1] (setting [3]) was in the range of 80 to 100%. Moreover, the pEC50 in assay [1] (setting [5]) was 7.00 to 9.00. For the same molecule, in assay [2], the 50% effective concentration (EC50) was less than 0.1 µM.
On to `CN(c1nc(-c2cc(-c3ccon3)n(Cc3ccccc3F)n2)ncc1F)[C@@H](Cc1ccccn1)C(=O)O` [Compound I-257], for which, in assay [1] (setting [4]), the pEC50 is less than 5.00. Also, the EC50 in assay [2] was more than 1 µM.
Consider `CC(C)[C@H](Nc1nc(-c2cc(-c3ccon3)n(Cc3ccccc3F)n2)ncc1F)C(=O)NS(=O)(=O)C1CC1` [Compound I-258], for which the Emax in assay [1] (setting [3]) is 100 to 120%. The pEC50 in assay [1] (setting [5]) was 5.30 to 6.00. Besides, the concentration giving a half-maximal response (EC50) in assay [2] is 0.101 to 1 µM.
Regarding `O=C(O)C1(O)CCN(c2nc(-c3cc(-c4ccon4)n(Cc4ccccc4F)n3)ncc2F)CC1` [Compound I-300], the Emax in assay [1] (setting [3]) fell in the range of 60 to 80%. Besides, in assay [1] (setting [5]), the negative logarithm of the EC50 (pEC50) was 6.00 to 6.30. In addition, the EC50 in assay [2] is 0.101 to 1 µM.
Taken in the same sequence, the figures for `C[C@H]1CCCN(c2nc(-c3cc(-c4ccon4)n(Cc4cccc(F)c4F)n3)ncc2F)[C@H]1C(=O)O` [Compound I-305] were 0 to 10%, less than 5.00 and less than 0.1 µM.
For the molecule `CN(c1nc(-c2cc(-c3ccon3)n(Cc3ccccc3F)n2)ncc1F)C12CC(C(=O)O)(C1)C2` [Compound I-307], the Emax in assay [1] (setting [3]) is 100 to 120%. In assay [1] (setting [5]), the pEC50 is 5.30 to 6.00. The EC50 in assay [2] lay in the range of 0.101 to 1 µM.
For `CN(CC(=O)NS(=O)(=O)c1ccccc1)c1nc(-c2cc(-c3ccon3)n(Cc3ccccc3F)n2)ncc1F` [Compound I-361] the same measures were 0 to 10%, 6.30 to 7.00 and less than 0.1 µM.
Turning to `Oc1noc2c1CCN(c1nc(-c3cc(-c4ccon4)n(Cc4ccccc4F)n3)ncc1F)C2` [Compound I-364], the pEC50 was 7.00 to 9.00 in assay [1] and more than 7.00 in assay [2]. The Emax in assay [1] (HEK293, read-out: HEK assay Emax - unconstrained (%)) was 80 to 100%.
`O=C(O)[C@@H]1[C@H]2CC[C@H](C2)N1c1nc(-c2cc(-c3ccon3)n(Cc3ccccc3F)n2)ncc1F` [Compound I-365]: in assay [1] (setting [3]), the Emax lay within 80 to 100%. Moreover, the pEC50 in assay [1] (setting [5]) was 5.30 to 6.00. In assay [2], the EC50 lay in the range of 0.101 to 1 µM.
For `NS(=O)(=O)C1CCN(c2nc(-c3cc(-c4ccon4)n(Cc4ccccc4F)n3)ncc2F)CC1` [Compound I-366] the same measures were 40 to 60%, 7.00 to 9.00 and less than 0.1 µM.
